Measured values from patent US20060063786A1 (priority 2002, published 2006).
Like-named read-outs stand apart in the source and are kept apart here.

System: Pyricularia oryzae
Format: in vivo
Settings: individual active compound, protective, inoculated next day, rated after 6 days

SMILES	Efficacy in % of the untreated control (1 ppm in the spray liquor)	Efficacy in % of the untreated control (4 ppm in the spray liquor)	Efficacy in % of the untreated control (0.25 ppm in the spray liquor)
C[C@H](Nc1c(-c2c(F)cc(F)cc2F)c(Cl)nc2ncnn12)C(F)(F)F [B]	28 % of the untreated control	52 % of the untreated control	
CNC(=O)/C(=N/OC)c1ccccc1CO/N=C(C)/C(=N/OC)C(/C)=N/OC [I (orysastrobin), 2-[2-(2,3-bismethoxyimino-1-methylbutylideneamino-oxymethyl)phenyl]-2-methoxyimino-N-methylacetamide]		28 % of the untreated control	0 % of the untreated control
CC1CCN(c2c(-c3c(F)cccc3Cl)c(Cl)nc3ncnn23)CC1 [A]	0 % of the untreated control	28 % of the untreated control	
CC1CCN(c2c(-c3c(F)cc(F)cc3F)c(Cl)nc3ncnn23)CC1 [II, 5-chloro-7-(4-methylpiperidin-1-yl)-6-(2,4,6-trifluorophenyl)-[1,2,4]triazolo[1,5-a]pyrimidine]	3 % of the untreated control	52 % of the untreated control	
